Measured values reported in patent US20120264735A1 (priority 2009, published 2012).

Target: T1, c-Met kinase (recombinant c-Met) (Homo sapiens, UniProt P08581)
T1 construct: 0.27 nM recombinant c-Met
Test: In vitro kinase assay I (homogeneous time-resolved fluorescence tyrosine kinase assay)
Assay type: biochemical
Summary of the method: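 Biotinylated peptide (0.5 μM) phosphorylated by 0.2 nM recombinant c-Met with 50 μM MgATP, 60 min at room temperature, pH 7.4, 5% DMSO. EDTA stop; HTRF read with Eu-anti-phosphotyrosine antibody and streptavidin-APC. IC50 from 4-parameter logistic fit.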

T1 sequence (P08581 25-1390): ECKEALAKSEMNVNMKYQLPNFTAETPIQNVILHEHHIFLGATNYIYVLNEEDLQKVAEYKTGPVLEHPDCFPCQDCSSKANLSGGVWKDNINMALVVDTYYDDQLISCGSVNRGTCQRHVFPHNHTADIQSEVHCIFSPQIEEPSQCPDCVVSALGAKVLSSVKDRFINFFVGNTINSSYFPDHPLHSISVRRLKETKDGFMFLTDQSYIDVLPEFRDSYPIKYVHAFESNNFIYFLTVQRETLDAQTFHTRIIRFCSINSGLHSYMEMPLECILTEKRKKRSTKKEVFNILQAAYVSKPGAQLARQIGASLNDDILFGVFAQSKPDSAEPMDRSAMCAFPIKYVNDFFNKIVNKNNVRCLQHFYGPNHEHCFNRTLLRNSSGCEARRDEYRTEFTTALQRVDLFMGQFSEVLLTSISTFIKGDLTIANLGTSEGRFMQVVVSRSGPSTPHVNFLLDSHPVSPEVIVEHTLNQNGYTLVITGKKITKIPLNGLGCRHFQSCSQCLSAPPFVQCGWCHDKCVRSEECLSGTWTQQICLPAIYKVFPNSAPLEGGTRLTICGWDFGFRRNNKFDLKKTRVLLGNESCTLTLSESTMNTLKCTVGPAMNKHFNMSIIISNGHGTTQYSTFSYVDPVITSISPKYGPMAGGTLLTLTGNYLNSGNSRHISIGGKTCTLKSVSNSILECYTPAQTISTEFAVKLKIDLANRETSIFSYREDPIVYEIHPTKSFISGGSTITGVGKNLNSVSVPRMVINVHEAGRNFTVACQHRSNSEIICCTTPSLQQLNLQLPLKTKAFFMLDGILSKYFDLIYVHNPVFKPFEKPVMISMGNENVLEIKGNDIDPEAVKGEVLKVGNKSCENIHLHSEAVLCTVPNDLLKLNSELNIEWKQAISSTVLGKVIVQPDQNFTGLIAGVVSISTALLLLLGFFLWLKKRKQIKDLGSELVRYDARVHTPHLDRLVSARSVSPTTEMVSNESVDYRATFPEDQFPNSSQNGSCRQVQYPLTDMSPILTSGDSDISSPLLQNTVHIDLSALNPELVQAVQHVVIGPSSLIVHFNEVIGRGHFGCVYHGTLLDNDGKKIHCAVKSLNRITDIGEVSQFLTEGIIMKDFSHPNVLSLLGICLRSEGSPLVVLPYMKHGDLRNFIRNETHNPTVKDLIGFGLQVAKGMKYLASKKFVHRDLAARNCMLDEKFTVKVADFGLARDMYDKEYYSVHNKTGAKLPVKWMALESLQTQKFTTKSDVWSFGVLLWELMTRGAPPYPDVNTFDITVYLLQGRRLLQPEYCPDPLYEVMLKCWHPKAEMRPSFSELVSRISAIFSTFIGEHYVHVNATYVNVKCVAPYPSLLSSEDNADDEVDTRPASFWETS

Compound	IC50
CCn1cc(-n2ccc(=O)c(C(C)c3cccc(-c4ncc(OCC5CCO5)cn4)c3)n2)cn1 (single isomer, unassigned) [Example 296, 1-(1-ethyl-1H-pyrazol-4-yl)-3-[(1R or S)-1-{3-[5-(oxetan-2-ylmethoxy)primidin-2-yl]phenyl}ethyl]pyridazin-4(1H)-one]	< 100 nM
COC(C)(C)COc1cnc(-c2cccc(C(C)c3nn(-c4ccc(F)c(F)c4)ccc3=O)c2)nc1 (single isomer, unassigned) [Example 252, 1-(3,4-difluorophenyl)-3-[(1R or S)-1-{3-[5-(2-methoxy-2-methylpropoxy)pyrimidin-2-yl]phenyl}ethyl]pyridazin-4(1H)-one]	< 100 nM
Cn1cc(-n2ccc(=O)c(Cc3ccc4nn(C)cc4c3)n2)cn1 [Example 49, 3-[(2-methyl-2H-indazol-5-yl)methyl]-1-(1-methyl-1H-pyrazol-4-yl)pyridazin-4(1H)-one]	1000 to 3000 nM
CCn1cc(-n2ccc(=O)c(C(C)c3cccc(-c4ncc(OCCN5CCOCC5)cn4)c3)n2)cn1 (single isomer, unassigned) [Example 300, 1-(1-ethyl-1H-pyrazol-4-yl)-3-[(1R or S)-1-{3-[5-(2-morpholin-4-ylethoxy)pyrimidin-2-yl]phenyl}ethyl]pyridazin-4(1H)-one]	< 100 nM
CCOC(=O)Nc1cccc(Cc2nn(-c3ccc(OC)nc3)ccc2=O)c1 [Example 31, ethyl (3-{[1-(6-methoxypyridin-3-yl)-4-oxo-1,4-dihydropyridazin-3-yl]methyl}phenyl)carbamate]	< 100 nM
Cc1nccc(-c2cccc(Cc3nn(-c4cnn(C)c4)ccc3=O)c2)n1 [Example 40, 1-(1-methyl-1H-pyrazol-4-yl)-3-[3-(2-methylpyrimidin-4-yl)benzyl]pyridazin-4(1H)-one]	1000 to 3000 nM
CCCCc1cnc(-c2cccc(Cc3nn(-c4cnn(C)c4)ccc3=O)c2)nc1 [Example 392, 3-[3-(5-butylpyrimidin-2-yl)benzyl]-1-(1-methyl-1H-pyrazol-4-yl)pyridazin-4(1H)-one]	< 100 nM
CCn1cc(-n2ccc(=O)c(C(C)c3cccc(-c4ncc(OCC5(F)CCNCC5)cn4)c3)n2)cn1 (single isomer, unassigned) [Example 338, 1-(1-ethyl-1H-pyrazol-4-yl)-3-[(1R or S)-1-(3-{5-[(4-fluoropiperidin-4-yl)methoxy]pyrimidin-2-yl}phenyl)ethyl]pyridazin-4(1H)-one]	< 100 nM
COCc1cnc(-c2cccc(Cc3nn(-c4cnn(C)c4)ccc3=O)c2)nc1 [Example 161, 3-{3-[5-(methoxymethyl)pyrimidin-2-yl]benzyl}-1-(1-methyl-1H-pyrazol-4-yl)pyridazin-4(1H)-one]	< 100 nM
CCn1cnc(-c2cccc(Cc3nn(-c4cnn(CCO)c4)ccc3=O)c2)n1 [Example 191, 3-[3-(1-Ethyl-1H-1,2,4-triazol-3-yl)benzyl]-1-[1-(2-hydroxyethyl)-1H-pyrazol-4-yl]pyridazin-4(1H)-one]	< 100 nM
CCn1cc(-n2ccc(=O)c(Cc3cccc(-c4ncc(OCC(C)(C)O)cn4)c3)n2)cn1 [Example 359, 1-(1-ethyl-1H-pyrazol-4-yl)-3-{3-[5-(2-hydroxy-2-methylpropoxy)pyrimidin-2-yl]benzyl}pyridazin-4(1H)-one]	< 100 nM
CCn1cc(-n2ccc(=O)c(Cc3cccc(-c4ncc(OCCOC)cn4)c3)n2)cn1 [Example 151, 1-(1-ethyl-1H-pyrazol-4-yl)-3-{3-[5-(2-methoxyethoxy)pyrimidin-2-yl]benzyl}pyridazin-4(1H)-one]	< 100 nM
Cn1cc(-n2ccc(=O)c(Cc3cccc(-c4ncc(OCC5(O)CCOCC5)cn4)c3)n2)cn1 [Example 365, 3-(3-{5-[(4-hydroxytetrahydro-2H-pyran-4-yl)methoxy]pyrimidin-2-yl}benzyl)-1-(1-methyl-1H-pyrazol-4-yl)pyridazin-4(1H)-one]	< 100 nM
CCn1cc(-n2ccc(=O)c(C(C)c3cccc(-c4ncc(OC5CCOC5)cn4)c3)n2)cn1 (single isomer, unassigned) [Example 297, 1-(1-ethyl-1H-pyrazol-4-yl)-3-[(1R or S)-1-{3-[5-(tetrahydrofuran-3-yloxy)pyrimidin-2-yl]phenyl}ethyl]pyridazin-4(1H)-one]	< 100 nM
CCn1cc(-n2ccc(=O)c(Cc3cccc(-c4ncc(OCc5ccccc5)cn4)c3)n2)cn1 [Example 71, 3-{3-[5-(benzyloxy)pyrimidin-2-yl]benzyl}-1-(1-ethyl-1H-pyrazol-4-yl)pyridazin-4(1H)-one]	< 100 nM
CCCOc1cnc2ccc(Cc3nn(-c4cnn(C)c4)ccc3=O)cc2c1 [Example 63, 1-(1-methyl-1H-pyrazol-4-yl)-3-[(3-propoxyquinolin-6-yl)methyl]pyridazin-4(1H)-one]	< 100 nM
Cn1cc(-n2ccc(=O)c(Cc3cccc(NC(=O)OCCF)c3)n2)cn1 [Example 499, 2-fluoroethyl (3-{[1-(1-methyl-1H-pyrazol-4-yl)-4-oxo-1,4-dihydropyridazin-3-yl]methyl}phenyl)carbamate]	< 100 nM
O=c1ccn(-c2ccc(F)c(F)c2)nc1Cc1cccc(-c2ncc(O)cn2)c1 [Example 188, 1-(3,4-Difluorophenyl)-3-[3-(5-hydroxypyrimidin-2-yl)benzyl]pyridazin-4(1H)-one]	100 to 1000 nM
Cn1cc(-c2cnc(-c3cccc(Cc4nn(-c5cc(Cl)cc(C#N)c5)ccc4=O)c3)nc2)cn1 [Example 158, 3-chloro-5-[3-{3-[5-(1-methyl-1H-pyrazol-4-yl)pyrimidin-2-yl]benzyl}-4-oxopyridazin-1(4H)-yl]benzonitrile]	< 100 nM
Cn1cc(-n2ccc(=O)c(Cc3cccc(-c4ncc(OCC(F)(F)CN5CCOCC5)cn4)c3)n2)cn1 [Example 259, 3-(3-{5-[2,2-Difluoro-3-(morpholin-4-yl)propoxy]pyrimidin-2-yl}benzyl)-1-(1-methyl-1H-pyrazol-4-yl)pyridazin-4(1H)-one]	< 100 nM

Further lines, results first:

IC50	Compound
< 100 nM	CCOc1ccc(-c2cccc(Cc3nn(-c4cnn(C)c4)ccc3=O)c2)nc1 [Example 677]
100 to 1000 nM	O=c1ccn(-c2ccc(Cl)cc2)nc1Cc1ccc(O)cc1 [Example 754, 1-(4-Chlorophenyl)-3-(4-hydroxybenzyl)pyridazin-4(1H)-one]
< 100 nM	COCCN(C)c1cnc(-c2cccc(Cc3nn(-c4cnn(C)c4)ccc3=O)c2)nc1 [compound 457, 3-(3-{5-[(2-methoxyethyl) (methyl)amino]pyrimidin-2-yl}benzyl)-1-(1-methyl-1H-pyrazol-4-yl)pyridazin-4(1H)-one]
< 100 nM	Cn1cc(-n2ccc(=O)c(Cc3cccc(NC(=O)OCCN4CCCC4=O)c3)n2)cn1 [Example 533, 2-(2-oxopyrrolidin-1-yl)ethyl (3-{[1-(1-methyl-1H-pyrazol-4-yl)-4-oxo-1,4-dihydropyridazin-3-yl]methyl}phenyl)carbamate]
100 to 1000 nM	Cn1cc(-n2ccc(=O)c(Cc3cccc(NC(=O)OC[C@@H]4CCCN4)c3)n2)cn1 [Example 616, (2S)-pyrrolidin-2-ylmethyl (3-{[1-(1-methyl-1H-pyrazol-4-yl)-4-oxo-1,4-dihydropyridazin-3-yl]methyl}phenyl)carbamate]
< 100 nM	Cn1cc(-n2ccc(=O)c(Cc3cccc(NC(=O)OCC(F)F)c3)n2)cn1 [Example 576, 2,2-difluoroethyl (3-{[1-(1-methyl-1H-pyrazol-4-yl)-4-oxo-1,4-dihydropyridazin-3-yl]methyl}phenyl)carbamate]
100 to 1000 nM	CC(C)COC(=O)Nc1cccc(Cc2nn(-c3ccc(-c4cnn(C)c4)cc3)ccc2=O)c1 [Example 732, 2-methylpropyl [3-({1-[4-(1-methyl-1H-pyrazol-4-yl)phenyl]-4-oxo-1,4-dihydropyridazin-3-yl}methyl)phenyl] carbamate]
< 100 nM	O=C(Nc1cccc(Cc2nn(-c3cc(F)c(F)c(F)c3)ccc2=O)c1)OCCN1CCC(C(=O)O)CC1 [Example 512, 1-(2-{[(3-{[4-oxo-1-(3,4,5-trifluorophenyl)-1,4-dihydropyridazin-3-yl]methyl}phenyl)carbamoyl]oxy}ethyl)piperidine-4-carboxylic acid]
< 100 nM	COCCN1CCC(COC(=O)Nc2cccc(Cc3nn(-c4cccc(C#N)c4)ccc3=O)c2)C1 (racemic) [Example 585, rac-[1-(2-methoxyethyl)pyrrolidin-3-yl]methyl (3-{[1-(3-cyanophenyl)-4-oxo-1,4-dihydropyridazin-3-yl]methyl}phenyl)carbamate]
< 100 nM	CC(C)COC(=O)Nc1cccc(Cc2nn(-c3ccc(-c4ccncc4)cc3)ccc2=O)c1 [Example 728, 2-methylpropyl (3-({4-oxo-1-(4-(pyridin-4-yl)phenyl)-1,4-dihydropyridazin-3-yl}methyl}phenyl) carbamate]
100 to 1000 nM	CCOCCn1cnc(-c2cccc(Cc3nn(-c4cnn(C)c4)ccc3=O)c2)n1 [Example 716, 3-{3-[1-(2-ethoxyethyl)-1H-1,2,4-triazol-3-yl]benzyl}-1-(1-methyl-1H-pyrazol-4-yl)pyridazin 4(1H)-one]
100 to 1000 nM	CCOc1cnc(-c2cccc(C(F)c3nn(-c4cnn(C)c4)ccc3=O)c2)nc1 (single isomer, unassigned) [Example 655, 3-[(S or R)-[3-(5-ethoxypyrimidin-2-yl)phenyl](fluoro)methyl]-1-(1-methyl-1H-pyrazol-4-yl)pyridazin-4(1H)-one]
< 100 nM	CC(c1cccc(-c2ncc(F)c(C3CC3)n2)c1)c1nn(-c2cnn(C)c2)ccc1=O (single isomer, unassigned) [Example 692, 3-{(1R or S)-1-[3-(4-cyclopropyl-5-fluoropyrimidin-2-yl)phenyl]ethyl}-1-(1-methyl-1H-pyrazol-4-yl)pyridazin-4(1H)-one]
< 100 nM	N#Cc1cccc(-n2ccc(=O)c(Cc3cccc(NC(=O)OCC4CCOC4)c3)n2)c1 (racemic) [Example 583, rac-tetrahydrofuran-3-ylmethyl (3-{[1-(3-cyanophenyl)-4-oxo-1,4-dihydropyridazin-3-yl]methyl}phenyl)carbamate]
